Consider one substance from patent publication US20070098735A1, “Methods for the Elimination of Pathogens and Other Particulate Agents” (priority 2005, published 2007).

For data set [1], the system named is Murine macrophage lines (RAW264.7, J774.A1 or RAW264NO-). In words: Phagocytosis assay in vitro (uptake of Alexa Fluor 488-labeled particles). In kind it is cell-based. Summed up:
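Macrophages in serum-free EMEM took up Alexa Fluor 488 beads, yeast or E. coli (40 particles/cell) for 60 min at 37 °C with or without HSPs, LPS or control proteins. Trypan blue (0.8 mg/ml, 60 s) quenched external fluorescence, and intracellular signal was read as relative mean fluorescence intensity. Data are from 3 experiments, 3 wells/group, compared with medium alone by Student's t test.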

The test system of data set [2] is full thickness surgical wounds on the dorsum of BALB/cJ mice. Nature of the data set: Closure of full thickness surgical wounds, percent wound closure. Type of data set: in vivo. The procedure:
Surgery and Treatment. Mice were anesthetized using Ketamine (2.0 mg/mouse) and Xylazine (0.1 mg/mouse) were administered intraperitoneally (IP) and the dorsal skin was shaved. After sterile prepping of the area, a full thickness circular wound, 8 mm diameter, was made on the dorsal skin using a disposable biopsy punch (Miltex Inc, York, Pa.) on the midline of the dorsum approximately at the iliac crest. The mice were then randomly assigned into the treatment groups. Initial wound measurements were performed while the mice were still anesthetized. Mice were then treated on days 0, 2, 4, and 6 unless otherwise specified. All agents used as treatment were diluted in 0.5 ml of PBS and injected using a 25-gauge needle in the subcutaneous space in the nape of the neck. The surgical procedures, post-operative monitoring, and safety concerns were approved by the Institutional Animal Care and Usage Committee.
Measurements and Analysis. Wound healing of open wounds is a complex process with many parameters to consider. […] The wound surface area was determined by measuring the craniocaudal and lateromedial distances using vernier calipers in perpendicular axis on days 0, 2, 4, 6, 9, and 11 postoperatively unless noted. Changes in wound area were expressed as percent wound closure. Wound closure data was plotted as average percent wound closure ±SEM unless otherwise noted. All calculations and data analysis were performed using Microsoft Excel and Sigma Plot. Sigma Plot was used to perform Student's t-tests for reported P values.
Full thickness surgical wounds were created on the dorsum of BALB/cJ mice as described in Methods. Wounds were made on day 0. Subsequently, the wounds were treated with exogenous injections of HSP70, HSP90, gp96 (30 μg/dose) or buffer administered subcutaneously (SC) on days 0, 2, 4 and 6 following surgery (FIG. 6A). The wounds were measured on days 0, 2, 4, 6, 9, 11 unless otherwise noted. Wounds were measured serially, percent wound closure was calculated and plotted against time in order to quantitate the rate of healing by secondary intention. […] Data is plotted as average percent wound closure ±SEM on days indicated. Two mice from each treatment group (PBS (n=12), HSP70 (n=11), HSP90 (n=12), and gp96 (n=11)) were sacrificed for histology on days 2, 4, and 6 post-surgery (data not shown). The P values obtain using the Student's t-test.
Results are of average percent wound closure ±SEM on day 2 post surgery. The *P values were obtained using the Student's t-test by comparing HSP treatment to all of the non-HSP control treatments. The least significant P value was reported. […] Doses higher than 50 μg/dose were not tested.

Turning to “HSP70: heat shock protein purified from murine livers, prepared as a complex with endogenous peptide”, in data set [1] (HSP70 100 μg/ml vs TLR7-ligands 1 mg/ml), the “rank as stimulator of phagocytosis among the agents tested” value is listed as “most potent stimulator of phagocytosis”. Besides, the “uptake of microbial or non-microbial materials as compared to control proteins or buffer” value in data set [1] (HSPs 100 μg/ml, P<0.01 vs medium alone) is “increase in uptake”. Moreover, the increase in phagocytosis in data set [1] (RAW264.7, labeled S. cerevisiae, HSP70 100 μg/ml, 60 minutes at 37° C.) is given as 4-6 times the basal rate. For the same substance, the “uptake of yeast by macrophages pre-treated with HSP and washed” value in data set [1] (compared with HSP and yeast administered simultaneously) is on record as “enhanced the uptake of yeast to the same extent”. Also, the “doses unable to stimulate uptake” value in data set [1] (dose range 10-100 μg/ml) is listed as “less than 20 μg/ml”. For the same substance, the “quantity of phagocytosis at higher doses” value in data set [1] (doses up to 200 μg/ml) is reported as “did not result in any further increase in the quantity of phagocytosis”. Also, the “dose at which the peak effect occurred” value in data set [1] (plateau through 100 μg/ml) amounted to 40 µg/mL. In addition, the “ability to enhance phagocytosis” value in data set [1] (serum-free conditions, 1 hour, HSP70 100 μg/ml, LPS 25 ng-1 μg/ml, heating 100° C. for 20 minutes) is “able to enhance phagocytosis equally whether in the presence or absence of serum”. For the same substance, the “time for antigen uptake to reach a plateau” value in data set [1] (time-titration 10-90 minutes) was at most 45 min. For the same substance, the “wound closure compared to controls” value in data set [2] (5 μg/dose and 50 μg/dose, day 2) is reported as “significant wound closure”. Also, the “wound healing at Day 11” value in data set [2] (30 μg/dose SC on days 0, 2, 4 and 6) is “completely healed”. The “dose with the most significant difference in wound closure” value in data set [2] (doses 5, 30, 50 μg/dose tested) came to 30 μg/dose. Also, the “cytotoxicity of HSP-treatment (trypan blue exclusion)” value with macrophages is on record as “not cytotoxic”.
